Reference: ChEMBL document CHEMBL1121514, “6-(Phenylthio)-substituted 2,3,4,5-tetrahydro-1H-3-benzazepines, a novel class of dopamine receptor antagonists and neuroleptics” (J Med Chem, 1980)

Legend:
Adenylate cyclase [1] = experiment: Inhibitory concentration against Dopamine sensitive adenylate cyclase in rats; type: functional
Adenylate cyclase [2] = experiment: Inhibitory activity against Dopamine sensitive adenylate cyclase in rats
Rattus norvegicus [3] = experiment: Effective Dose for avoidance acquisition in naive rats when administered intraperitoneal; type: functional; conditions: ip
Rattus norvegicus [4] = experiment: Effective Dose for catalepsy production in naive rats when administered intraperitoneal; type: functional; conditions: ip
Canis lupus familiaris [5] = experiment: % Change in renal vascular resistance in dogs when administered at dose 3 ug/kg intravenously
Canis lupus familiaris [6] = experiment: % Change in renal vascular resistance in dogs when administered at dose 15 ug/kg intravenously

**Q.** How did the IC50 (Adenylate cyclase [1]) turn out when `CN1CCc2c(Cl)c(O)c(O)c(Sc3ccccc3)c2CC1` was run?
**A.** Its IC50 is 360 nM.

**Q.** And the Ki (Adenylate cyclase [2])?
**A.** The Ki was 33 nM.

**Q.** What about the ED50 (Rattus norvegicus [3]) of the same compound?
**A.** The ED50 was 0.08 mg/kg.

**Q.** And the ED50 (Rattus norvegicus [4])?
**A.** Its ED50 is 3 mg/kg.

**Q.** How did the IC50 (Adenylate cyclase [1]) turn out when `Br.Oc1cc2c(c(Sc3ccccc3)c1O)CCNCC2` was run?
**A.** The IC50 was 2700 nM.

**Q.** What about the Ki (Adenylate cyclase [2]) of the same compound?
**A.** The Ki was 250 nM.

**Q.** And the ED50 (Rattus norvegicus [3])?
**A.** The ED50 was 4.9 mg/kg.

**Q.** What about the ED50 (Rattus norvegicus [4]) of the same compound?
**A.** Its ED50 is 64.6 mg/kg.

**Q.** How did the IC50 (Adenylate cyclase [1]) turn out when `Br.CN1CCc2cc(O)c(O)c(Sc3ccccc3)c2CC1` was run?
**A.** The IC50 was 240 nM.

**Q.** What about the Ki (Adenylate cyclase [2]) of the same compound?
**A.** Its Ki is 22 nM.

**Q.** And the ED50 (Rattus norvegicus [3])?
**A.** Its ED50 is 0.5 mg/kg.

**Q.** And the ED50 (Rattus norvegicus [4])?
**A.** The ED50 was 5.6 mg/kg.

**Q.** How did the IC50 (Adenylate cyclase [1]) turn out when `CN(C)CCCN1c2ccccc2Sc2ccc(Cl)cc21` [CHLORPROMAZINE] was run?
**A.** The IC50 was 1300 nM.

**Q.** What about the Ki (Adenylate cyclase [2]) of the same compound?
**A.** Its Ki is 118 nM.

**Q.** What about the ED50 (Rattus norvegicus [3]) of the same compound?
**A.** The ED50 was 1.5 mg/kg.

**Q.** What about the ED50 (Rattus norvegicus [4]) of the same compound?
**A.** The ED50 was 4.2 mg/kg.

**Q.** Which Change (Canis lupus familiaris [5]) does the source give for `NCCc1ccc(O)c(O)c1` [DOPAMINE] here?
**A.** Its Change is 8%.

**Q.** Which results are given for H-RPPGFSPFR-OH [BRADYKININ]?
**A.** Change (Canis lupus familiaris [5]): -19%; Change (Canis lupus familiaris [6]): -37%
